Assay [1] relates to Pseudomonas aeruginosa strain M2. Kind of assay: Protection of neutropenic CD-1 mice challenged with Pseudomonas aeruginosa. It is filed as in vivo. Conditions: for Survival (%) post bacterial challenge: PBS 8. More on the design: Survival post bacterial challenge, surviving mice: reference not given here. On the procedure: CD-1 mice were induced to be neutropenic via 3 intraperitoneal injections of cyclophosphamide ([…]) every another day. Immediately after the third administration of cyclophosphamide, the mice were challenged by intraperitoneal injection of Pseudomonas aeruginosa strain M2 (200-300 organisms/mouse). Cationic peptides (200 µg per mouse=8 mg/kg) in 100 µl buffered citrate were injected intraperitoneally at 30 min (single dose) or 30 min and 16 hrs (double dose) post bacterial challenge, respectively. The data were the average values of 2 individual experiments. PBS was used as a control. […] In general single dose protection studies gave better protection than double dose experiments.

In assay [2] the test system is E. coli. Kind of assay: MIC, broth microdilution assay in polypropylene microtiter trays. The note with it: average of three separate experiments. It is filed as cell-based. The procedure:
(§1) The biological activity of the peptides can be determined by standard methods known to those of skill in the art, such as Aminimal inhibitory concentration (MIC)≅ assay described in the present examples, whereby the lowest concentration at which no change in OD is observed for a given period of time is recorded as MIC. Alternatively, Afractional inhibitory concentration (FIC)≅ is also useful for determination of synergy between the peptides of the invention, or the peptides in combination with known antibiotics. FICs are performed by checkerboard titrations of peptides in one dimension of a microtiter plate, and of antibiotics in the other dimension, for example. The FIC is calculated by looking at the impact of one antibiotic on the MIC of the other and vice versa. […] Preferably, an FIC of less than 0.5 is obtained for synergism. As used herein, FIC can be determined as follows: [formula]
(§2) A method which employed polypropylene microtiter trays in a broth microdilution assay was developed.

In assay [3] the test system is S. aureus K147. The assay is described as above. It is filed as cell-based. Conditions: average of three separate experiments. The procedure:
as §1, §2

Assay [4] deals with P. aeruginosa. The description is as above. Type of assay: cell-based. Conditions: average of three separate experiments. The procedure:
as §1, §2

The subject of assay [5] is S. aureus. The assay is described as above. Type of assay: cell-based. The note with it: average of three separate experiments. On the procedure:
as §1, §2

Assay [6] concerns S. epidermis. The description is as above. Type of assay: cell-based. Conditions: average of three separate experiments. The procedure: as §1, §2
Assay [7] concerns Aeromonas salmonicida (As). Type of assay: cell-based. Conditions: Mueller Hinton Broth. The procedure: as §1
(§3) These peptides varied in activity (Table 11), however, the C-terminally capped pleurocidin especially and its N-terminally capped lysine derivative had much better activities against a variety of bacteria including Vibrio anguillarum (Va), Aeromonas salmonicida (As), Staphylococcus epidermidis (C621), Salmonella typhimurium wild type (C587) and phoP phoQ mutant (C610), and Pseudomonas aeruginosa wild type (K799) and outer membrane barrier altered (Z61). The antimicrobial peptide CEME, a fusion peptide made from portions of an insect defensin ceropin A and the bee venom peptide melittin (Piers and Hancock, Mol. Microbiol., 12:951-8, 1994), as well as the known antibiotics polymyxin B and gentamicin were used as controls. Replacing the pleurocidin N-terminus with the dermaseptin N-terminus had no effect. Replacing pleurocidin N-terminus with the ceratoxin N-terminus reduced activity. […] Amidating the C-terminus improved antimicrobial activity. Replacing the pleurocidin C-terminus with the misgurin C-terminus had no effect.
(§4) Bacteria included Vibrio anguillarum (Va), Aeromonas salmonicida (As), Staphylococcus epidermidis (C621), Salmonella typhimurium wild type (C587) and phoP phoQ mutant (C6 10), and Pseudomonas aeruginosa wild type (K799) and outer membrane barrier altered (Z61).

Assay [8] deals with Pseudomonas aeruginosa outer membrane barrier altered (Z61). It is filed as cell-based. The note with it: Mueller Hinton Broth. The procedure:
as §1, §3, §4

Assay [9] has as its system Pseudomonas aeruginosa wild type (K799). It is filed as cell-based. Conditions: Mueller Hinton Broth. On the procedure:
as §1, §3, §4

In assay [10] the test system is Salmonella typhimurium phoP phoQ mutant (C610). It is filed as cell-based. Conditions: Mueller Hinton Broth. On the procedure: as §1, §3, §4
Assay [11] relates to Vibrio anguillarum (Va). It is filed as cell-based. Conditions: Mueller Hinton Broth. The procedure:
as §1, §3, §4

Assay [12] concerns Salmonella typhimurium wild type (C587). It is filed as cell-based. The note with it: Mueller Hinton Broth. The procedure:
as §1, §3, §4

The test system of assay [13] is Staphylococcus epidermidis (C621). It is filed as cell-based. The note with it: Mueller Hinton Broth. On the procedure:
as §1, §3, §4

Assay [14] in a line: Lethal endotoxemia in galactosamine-sensitized mice. Conditions: peptide 200 μg intraperitoneal within 10 min of 10 μg LPS; 24 hours post injection; 5 mice per group; no peptide 100. Type of assay: in vivo, CD-1 mice. On the procedure:
To confirm this in vivo, endotoxic shock was induced by intraperitoneal injection of 10 μg of E.coli 0111:B4 LPS in phosphate-buffered saline (PBS; pH 7.2) into galactosamine-sensitized 8- to 10- week old female CD-1 mice (5 per group). In experiments involving peptides, 200 μg in 100 μl of sterile water was injected at separate intraperitoneal sites within 10 min of LPS injection. Survival was monitored at 24 hours post injection.

Ends that are not written are not given here.

`CC[C@H](C)[C@H](NC(=O)[C@H](CC(C)C)NC(=O)[C@H](C)NC(=O)[C@@H]1CCCN1C(=O)[C@H](CC(C)C)NC(=O)CNC(=O)[C@@H](NC(=O)[C@@H](NC(=O)[C@H](CC(C)C)NC(=O)[C@@H](NC(=O)[C@H](CCCCN)NC(=O)[C@H](CCCCN)NC(=O)[C@@H](NC(=O)[C@H](C)NC(=O)[C@@H](NC(=O)[C@@H](NC(=O)[C@H](CC(C)C)NC(=O)[C@H](CCCCN)NC(=O)[C@H](CCCCN)NC(=O)[C@@H](NC(=O)[C@H](Cc1ccccc1)NC(=O)[C@H](CO)NC(=O)[C@H](CCCCN)NC(=O)[C@H](Cc1c[nH]c2ccccc12)NC(=O)[C@@H](N)CCCCN)[C@@H](C)CC)[C@@H](C)O)[C@@H](C)O)C(C)C)C(C)C)[C@@H](C)O)[C@@H](C)O)C(=O)N[C@@H](CO)C(=O)O` [CP-29, reference compound]: the “Survival post bacterial challenge, surviving mice” value in [1] (single dose (200 μg per mouse i.p. at 30 min), 16 hr) came to 8; in assay [1] (single dose, 24 hr) it was 8; in [1] (single dose, 41 hr), 7; in [1] (single dose, 48 hr), 6; in [1] (single dose, 64 hr), 4; in [1] (single dose, 72 hr), 4. The “Survival post bacterial challenge, surviving mice” value in [1] (single dose, 96 hr) is 3. The “Survival (%) post bacterial challenge” value in assay [1] (single dose, 64 hr) is reported as 50%; in assay [1] (single dose, 72 hr), 50%; in [1] (single dose, 96 hr), 37%. In assay [2], the “MIC E. coli” value stood at 2 µg/mL. Moreover, the “MIC S. aureus K147” value in assay [3] is 11 µg/mL. In addition, the “MIC P. aeruginosa” value in [4] is 6 µg/mL. Moreover, in assay [5], the “MIC S. aureus” value was 19 µg/mL. Besides, the “MIC S. epidermis” value in assay [6] was 5 µg/mL.
As to ALWKTMLKKAAHVGKHVGKAALTHYL-NH2 [P-DER], in assay [7], the “MIC As” value was determined as 1 µg/mL. In addition, the “MIC Z61” value in [8] was 8 µg/mL. Further, the “MIC K799” value in [9] was found to be 16 µg/mL. For the same compound, the “MIC C610” value in [10] amounted to 0.5 µg/mL. For the same compound, in assay [11], the “MIC Va” value was determined as 4 µg/mL. Besides, the “MIC C587” value in [12] was 4 µg/mL. For the same compound, the “MIC C621” value in [13] was 4 µg/mL.
As for “KGWGSFFKKAAHVGKHVGKAALTHYL [Peptide P-1]”, in [7], the “MIC As” value amounted to 2 µg/mL. In addition, the “MIC Z61” value in assay [8] came out at 8 µg/mL. Further, the “MIC K799” value in [9] amounted to 32 µg/mL. The “MIC C610” value in [10] is below 0.5 µg/mL. For the same compound, the “MIC Va” value in [11] was found to be 16 µg/mL. Further, the “MIC C587” value in [12] worked out at 16 µg/mL. For the same compound, in assay [13], the “MIC C621” value was found to be 64 µg/mL.
Regarding gentamicin [reference compound], the “MIC As” value in assay [7] was below 0.5 µg/mL. Further, the “MIC Z61” value in assay [8] was below 0.5 µg/mL. In addition, the “MIC K799” value in assay [9] is below 0.5 µg/mL. Also, the “MIC C610” value in assay [10] is below 0.5 µg/mL. Also, in [11], the “MIC Va” value worked out at 1 µg/mL. In [12], the “MIC C587” value was below 0.5 µg/mL. Further, the “MIC C621” value in assay [13] stood at 16 µg/mL.
With SIGSAFKKAAHVGKHVGKAALGAAARRRK [CER-M], the “MIC As” value in [7] turned out to be 32 µg/mL. In assay [8], the “MIC Z61” value was found to be 64 µg/mL. Moreover, the “MIC K799” value in assay [9] was above 64 µg/mL. In assay [10], the “MIC C610” value came to 8 µg/mL. Further, the “MIC Va” value in [11] is above 64 µg/mL. The “MIC C587” value in [12] is above 64 µg/mL. For the same compound, the “MIC C621” value in assay [13] was above 64 µg/mL.
For the compound polymyxin B [reference compound], the “MIC As” value in assay [7] was below 0.5 µg/mL. The “MIC Z61” value in assay [8] was below 0.5 µg/mL. Besides, in assay [9], the “MIC K799” value is below 0.5 µg/mL. Further, the “MIC C610” value in assay [10] was below 0.5 µg/mL. For the same compound, the “MIC Va” value in assay [11] came out at 16 µg/mL. For the same compound, in [12], the “MIC C587” value is below 0.5 µg/mL. The “MIC C621” value in [13] was 16 µg/mL.
For SIGSAFKKAAHVGKHVGKAALTHYL-NH2 [P-CER], the “MIC As” value in [7] was 8 µg/mL. Moreover, in assay [8], the “MIC Z61” value is above 64 µg/mL. Moreover, the “MIC K799” value in assay [9] is above 64 µg/mL. The “MIC C610” value in assay [10] was 2 µg/mL. For the same compound, the “MIC Va” value in assay [11] stood at 64 µg/mL. Moreover, the “MIC C587” value in assay [12] is above 64 µg/mL. Besides, the “MIC C621” value in assay [13] is above 64 µg/mL.
Take “KGWGSFFKKAAHVGKHVGKAALTHYL-NH2 [Peptide P-1-CN]”: the “MIC As” value in [7] stood at 1 µg/mL. In [8], the “MIC Z61” value is 2 µg/mL. Moreover, in [9], the “MIC K799” value came out at 8 µg/mL. Besides, the “MIC C610” value in assay [10] was below 0.5 µg/mL. The “MIC Va” value in assay [11] turned out to be 2 µg/mL. Besides, the “MIC C587” value in assay [12] amounted to 2 µg/mL. Moreover, the “MIC C621” value in assay [13] was determined as 2 µg/mL.
`CC[C@H](C)[C@H](NC(=O)CNC(=O)[C@@H](NC(=O)[C@H](CCCCN)NC(=O)[C@H](CCCCN)NC(=O)[C@H](Cc1ccccc1)NC(=O)[C@H](CC(C)C)NC(=O)[C@H](CCCCN)NC(=O)[C@H](Cc1c[nH]c2ccccc12)NC(=O)[C@@H](N)CCCCN)[C@@H](C)CC)C(=O)NCC(=O)N[C@@H](C)C(=O)N[C@H](C(=O)N[C@@H](CC(C)C)C(=O)N[C@@H](CCCCN)C(=O)N[C@H](C(=O)N[C@@H](CC(C)C)C(=O)N[C@H](C(=O)N[C@H](C(=O)NCC(=O)N[C@@H](CC(C)C)C(=O)N1CCC[C@H]1C(=O)N[C@@H](C)C(=O)N[C@@H](CC(C)C)C(=O)N[C@@H](CCCCN)C(=O)N[C@@H](CC(C)C)C(=O)N[C@H](C(=O)N[C@@H](CCCCN)C(=O)O)[C@@H](C)O)[C@@H](C)O)[C@@H](C)O)C(C)C)C(C)C` [CEMA, reference compound]: the “Mortality (%)” value in assay [14] worked out at 0%.
As for “RQRVEELSKFSKKGAAARRRK [Peptide M-0, reference compound]”, the “MIC As” value in [7] is above 64 µg/mL. In addition, the “MIC Z61” value in [8] is above 64 µg/mL. Moreover, the “MIC K799” value in assay [9] was above 64 µg/mL. Also, the “MIC C610” value in [10] was above 64 µg/mL. Besides, the “MIC Va” value in assay [11] is above 64 µg/mL. Moreover, the “MIC C587” value in assay [12] is above 64 µg/mL. Moreover, the “MIC C621” value in assay [13] is above 64 µg/mL.

The values above are taken from patent US6818407B2, “Anti-endotoxic antimicrobial cationic peptides and methods of use therfor” (priority 1998, dated 2004).
